Test results from the supplement of paper PMC10307832.

Assays:
Assay in all cases: relative viability (nuclei count vs DMSO), 5 days (fraction); higher = more cells survive
[1] = compound: C1/C(=C\C2=CC=CS2)/C(=O)/C(=C/C3=CC=CS3)/C1 + NC(=O)Nc1cc(-c2cccc(F)c2)sc1C(=O)N[C@H]1CCCNC1 [AZD7762] (partner 0.2 µM)
In short: (§1)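 Lung cancer cell lines in 1536-well plates got either a single drug or a fixed anchor-drug dose together with five library-drug doses (not always all listed) in √10 steps, by pin tool, on the day after seeding. Nuclei were counted after 5 days, and relative viability is the treated-to-vehicle ratio of nuclei counts. Values are medians of duplicate plates.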

TPCA-1 + Palbociclib = compound: C1=CC(=CC=C1C2=CC(=C(S2)NC(=O)N)C(=O)N)F [TPCA-1] + CC(=O)c1c(C)c2cnc(Nc3ccc(N4CCNCC4)cn3)nc2n(C2CCCC2)c1=O [Palbociclib] (partner 0.5 µM)
In short: as §1

[2] = compound: C1/C(=C\C2=CC=CS2)/C(=O)/C(=C/C3=CC=CS3)/C1 + CC1(C)CCC(c2ccc(Cl)cc2)=C(CN2CCN(c3ccc(C(=O)NS(=O)(=O)c4ccc(N[C@H](CCN5CCOCC5)CSc5ccccc5)c(S(=O)(=O)C(F)(F)F)c4)cc3)CC2)C1 [Navitoclax] (partner 0.5 µM)
In short: as §1

[3] = compound: C[C@]12O[C@H](C[C@]1(O)CO)n1c3ccccc3c3c4c(c5c6ccccc6n2c5c31)CNC4=O [Lestaurtinib] + CC(=O)c1c(C)c2cnc(Nc3ccc(N4CCNCC4)cn3)nc2n(C2CCCC2)c1=O [Palbociclib] (partner 0.5 µM)
In short: as §1

Cell Line | relative viability ([1]; first compound 0.2 µM) | relative viability ([1]; first compound 0.6325 µM) | relative viability ([1]; first compound 2 µM) | relative viability ([1]; first compound 6.325 µM) | relative viability ([1]; first compound 20 µM) | relative viability (TPCA-1 + Palbociclib; first compound 0.1265 µM) | relative viability (TPCA-1 + Palbociclib; first compound 0.4 µM) | relative viability (TPCA-1 + Palbociclib; first compound 1.265 µM) | relative viability (TPCA-1 + Palbociclib; first compound 4 µM) | relative viability ([2]; first compound 0.2 µM) | relative viability ([2]; first compound 0.6325 µM) | relative viability ([2]; first compound 2 µM) | relative viability ([2]; first compound 6.325 µM) | relative viability ([2]; first compound 20 µM) | relative viability ([3]; first compound 0.005 µM) | relative viability ([3]; first compound 0.01581 µM) | relative viability ([3]; first compound 0.05 µM) | relative viability ([3]; first compound 0.1581 µM) | relative viability ([3]; first compound 0.5 µM) | relative viability (TPCA-1 + Palbociclib; first compound 0.04 µM)
NCI-H2085 | 1.03 | 1.05 | 0.926 | 0.932 | 0.932 | 0.47 | 0.489 | 0.443 | 0.46 | 1.13 | 1.16 | 1.03 | 1.15 | 1.09 | 0.445 | 0.489 | 0.471 | 0.463 | 0.475 | 
NCI-H460 | 0.684 | 0.595 | 0.634 | 0.618 | 0.609 | 0.086 |  | 0.16 | 0.136 | 1.26 | 1.34 | 1.12 |  | 1.14 | 0.151 | 0.231 | 0.112 | 0.116 | 0.116 | 0.187
Calu-6 |  |  |  |  |  |  |  |  |  | 0.855 | 0.848 | 0.91 | 0.811 | 0.857 |  |  |  |  |  | 
RERF-LC-KJ | 1.09 | 1.04 | 1.05 | 0.87 | 1.06 | 1.04 | 1.04 | 1.03 | 0.892 | 0.949 | 0.995 | 0.965 | 0.787 | 0.86 | 1.15 | 1.15 | 0.845 | 0.87 | 0.565 | 1.12
LCLC-103H | 0.772 | 0.742 | 0.9 | 0.613 | 0.783 | 0.519 | 0.465 | 0.473 | 0.494 |  |  |  |  |  | 0.524 | 0.506 | 0.497 | 0.474 | 0.51 | 0.52
NCI-H596 | 1.12 | 1.12 | 1.13 | 0.659 | 1.02 |  |  |  |  | 0.987 | 0.975 | 0.919 | 0.956 | 0.933 |  |  |  |  |  | 
NCI-H661 |  |  |  |  |  | 0.397 | 0.411 | 0.399 | 0.378 |  |  |  |  |  | 0.423 | 0.413 | 0.445 | 0.467 | 0.317 | 0.413
NCI-H522 | 0.936 | 0.809 | 0.822 | 0.9 | 0.94 | 0.978 | 1.06 | 1.04 | 0.953 |  |  |  |  |  | 0.998 | 1 | 0.879 | 0.871 | 0.631 | 1.15
COR-L23 |  |  |  |  |  | 0.289 | 0.272 | 0.206 | 0.169 | 1.06 | 1.09 | 1.02 | 0.864 | 0.967 | 0.337 | 0.319 | 0.223 | 0.248 | 0.11 | 0.316
NCI-H1299 |  |  |  |  |  |  |  |  |  | 1.08 | 1.08 | 1.03 | 0.973 | 1.05 |  |  |  |  |  | 
NCI-H650 | 1.14 | 0.952 | 0.897 | 0.937 | 1.11 | 0.323 | 0.343 | 0.266 | 0.279 |  |  |  |  |  | 0.315 | 0.323 | 0.249 | 0.236 | 0.229 | 0.347
NCI-H358 | 0.643 | 0.53 | 0.593 | 0.444 | 0.572 | 0.157 | 0.137 | 0.109 | 0.108 |  |  |  |  |  | 0.132 | 0.131 | 0.14 | 0.111 | 0.108 | 0.152
SW 1573 |  |  |  |  |  | 0.396 | 0.396 | 0.395 | 0.407 | 0.908 | 0.979 | 1.15 | 0.862 | 0.833 | 0.373 | 0.385 | 0.298 | 0.306 | 0.113 | 0.429
SK-MES-1 |  |  |  |  |  | 0.333 | 0.325 | 0.319 | 0.327 | 1.28 | 1.3 | 1.17 | 1 | 1.14 | 0.329 | 0.324 | 0.266 | 0.337 | 0.228 | 0.346
NCI-H1648 | 0.778 | 0.622 | 0.571 | 0.601 | 0.511 | 0.245 | 0.262 | 0.254 | 0.199 |  |  |  |  |  |  | 0.317 |  | 0.393 | 0.466 | 0.254
NCI-H2023 |  |  |  |  |  | 0.394 | 0.444 | 0.37 | 0.165 | 1.08 | 0.991 | 1.03 | 0.971 | 0.94 | 0.402 | 0.316 | 0.384 | 0.261 | 0.121 | 0.366
EBC-1 |  |  |  |  |  |  |  |  |  | 0.439 | 0.469 | 0.478 | 0.398 | 0.497 |  |  |  |  |  | 
NCI-H2009 |  |  |  |  |  | 0.204 | 0.25 | 0.174 | 0.19 | 1.19 | 1.21 | 1.06 | 1.15 | 1.16 | 0.221 | 0.226 | 0.183 | 0.194 | 0.133 | 0.254
NCI-H2228 |  |  |  |  |  | 0.593 | 0.801 | 0.543 | 0.308 | 0.823 | 1.3 | 0.904 | 0.73 | 1.05 | 1.03 | 1.05 | 0.407 | 0.28 | 0.275 | 0.865
IA-LM |  |  |  |  |  |  |  |  |  | 0.938 | 0.925 | 0.88 | 0.565 | 0.704 |  |  |  |  |  | 
ABC-1 | 1.01 | 1.04 | 0.905 | 0.528 | 1 | 0.589 | 0.584 | 0.612 | 0.754 |  |  |  |  |  | 0.618 | 0.625 | 0.647 | 0.619 | 0.42 | 0.967
NCI-H520 |  |  |  |  |  | 0.162 | 0.164 | 0.282 | 0.232 | 0.98 | 1.06 | 1.15 | 0.856 | 1 | 0.262 | 0.234 | 0.201 | 0.171 | 0.158 | 0.281
NCI-H1703 | 0.121 | 0.176 | 0.148 | 0.119 | 0.128 |  |  |  |  | 1.3 | 1.8 | 1.32 | 1.05 | 1.14 |  |  |  |  |  | 
